According to patent US11890279B2, “Quinolines that modulate SERCA and their use for treating disease” (Neurodon Corporation, priority 2020, dated 2024):
Each block holds one molecule with its values, some of them ahead of it.

Assays:
human islet microtissues = assay: Protection of human pancreatic islets under cytokine stress; assay type: cell-based; conditions: 168 h, compound 5 μM, cytokine cocktail IL1-β, IFN-γ, TNF-α, 7 days, read-out: increase in viability over baseline (total ATP content)
Description: Human pancreatic islet microtissues treated with cytokines were used to model the conditions of Type 1 Diabetes in vitro. This study tested the effects of compounds on […] viability in human islets under cytokine stress. The model consisted of human islet microtissues from an HLA-A2 positive donor grown and separated in a 96-well plate (1 microtissue per well). The microtissues were treated for 7 days with a cocktail of cytokines (IL1-β 5 ng/mL, IFN-γ 25 ng/mL, TNF-α 25 ng/mL) and compound (5 μM) or vehicle. There were 6 microtissues treated per compound or vehicle. At day 7, the total ATP content was measured using CellTiter-Glo (Promega).

SERCA (SR vesicles) = assay: Activation of SERCA, increase in Vmax; assay type: biochemical
Description: Test compounds were characterized over a range of concentrations using an NADH-linked, enzyme-coupled ATPase assay. Each well contained 2 mg or 7 mg of SR vesicles (optimized for skeletal or cardiac SR, respectively), 50 mM MOPS (pH 7.0), 100 mM KCl, 5 mM MgCl2, 1 mM EGTA, 0.2 mM NADH, 1 mM phosphoenol pyruvate, 5 IU pyruvate kinase, 5 IU lactate dehydrogenase, and 3.5 mg/mL A23187 (a calcium ionophore), and CaCl2 was added to set free [Ca2+] to the specific values. The assay was started upon addition of ATP at a final concentration of 5 mM, and read in a SpectraMax Plus microplate spectrophotometer and the ATPase activities were fitted using the Hill function.

[1] = Pharmacokinetics in Sprague Dawley rats; assay type: in vivo, rat; conditions: rat; for AUC(0-t): read-out: AUC0-t; for MRT inf: read-out: MRT0-∞
Description: Blood was drawn at 5 min, 15 min, 30 min, 1 hr, 2 hrs, 4 hrs, 6 hrs, and 8 hrs into EDTA containing tubes and plasma was harvested by centrifugation. Plasma (25 μL) was treated with acetonitrile (125 μL) containing an internal standard. The sample was then centrifuged for 5 min at 4,000 rpm in a tabletop centrifuge and the filtrate was collected. The filtrate was injected onto a Thermo Betasil C18 HPLC column 5 (50×2.1 mm). Mobile Phase A was water with 0.1% formic acid. Mobile Phase B was acetonitrile with 0.1% formic acid. […] An API Sciex 4000 equipped with a turbo ion spray source was used for all analytical measurements. A positive ion MRM method was developed. Peak areas of the product ion were measured against the peak areas of the internal standard. Data was fit using WinNonLin (Pharsight Corporation, Mountain View, CA).

Ca^2+-ATPase = assay: Ca2+-ATPase assay, microsomal preparations from HEK 293 cells; assay type: biochemical, human
Description: A Ca^2+-ATPase assay was performed using microsomal preparations from HEK 293 cells at a series of calcium concentrations corresponding to the physiological range, relative to controls. The ATP hydrolysis rate was measured over a range of calcium concentrations in the presence of test compounds using an NADH-linked, enzyme-coupled ATPase assay adapted for 96-well microplates, with Vmax determined by fitting the ATPase calcium-dependence to the Hill function. […] CaCl2 was added to set free [Ca^2+] to the specific values.

[2] = Pharmacokinetics in Beagle dogs; assay type: in vivo; conditions: dog; for MRT inf: read-out: MRT0-∞
Description: Pharmacokinetics of compound A13 was assessed in dogs. […] For pharmacokinetic evaluation, 3 male Beagle dogs were intravenously (IV) dosed (1 mg/kg body weight) and 3 male Beagle dogs were orally (PO) dosed (10 mg/kg body weight) with a test compound. Blood (approximately 1.0 mL) was collected via femoral vein into tubes containing K3EDTA anticoagulant at 0, 0.017, 0.083, 0.5, 1, 2, 4, 6, 8, and 24 hours post-dosing. Plasma samples were analyzed by LC-MS/MS. The analytical results were confirmed using quality control samples for intra-assay variation. The accuracy of >66% of the quality control samples was between 80-120% of the known value(s). A standard set of pharmacokinetic parameters were generated from concentration data including Area Under the Curve (AUC0-t and AUC0-inf), elimination half-lives, clearances, volume of distribution and bioavailabilities (based on AUC0-t), maximum plasma concentration (C0; Cmax), and time to reach maximum plasma concentration (Tmax).

[3] = Pharmacokinetics in CD-1 mice; assay type: in vivo, mouse; conditions: for F / AUC / Cmax / half-life: CD-1 mice; for F: 10 mg/kg P.O. vs 2 mg/kg i.v.; for AUC / Cmax / half-life: mouse, plasma, 2 mg/kg i.v. or 10 mg/kg P.O.; for pharmacokinetic properties as measured by CMAX, AUC and F (%): compared with other SERCA modulators, see Table 6
Description: Pharmacokinetics of test compounds were assessed in CD-1 mice. The compounds were formulated at 1 mg/mL in DMSO/Tween 80/water (10/10/80, vol/vol/vol) and dosed at 2 mg/kg intravenous (i.v.) or 10 mg/kg by oral gavage (P.O.) in triplicate. Blood was drawn at 0.25 h, 0.5 h, 1 hr, 2 hrs, 4 hrs, 8 hrs, and 24 hrs into EDTA containing tubes and plasma was harvested by centrifugation. Plasma (10 μL) containing 50% acetonitrile in water (5 μL) was added to 200 μL of ACN containing an internal standard. The samples were vortexed for 30 s. After centrifugation at […] and 4,000 rpm for 15 min, the supernatant was diluted 3 times with water. Then, 20 μL of diluted supernatant was injected into the LC/MS/MS system for quantitative analysis. The samples were injected onto an Agilent ZORBAX XDB-Phenyl 5μ column (50×2.10 mm). Mobile Phase A was water with 0.1% formic acid. Mobile Phase B was acetonitrile with 0.1% formic acid. Separation was achieved using a gradient of 70% A/30% B to 0% A/100% B over 2.10 min. A Shimadzu LCMS-8050 equipped with a turbo ion spray source was used for all analytical measurements. A positive ion MRM method was developed. Peak areas of the product ion were measured against the peak areas of the internal standard. Data was fit using WinNonLin (Pharsight Corporation, Mountain View, CA).

HEK293 cells = assay: Protection against thapsigargin (TG)-induced cell death, HEK293; assay type: cell-based, human; conditions: compound 20 μM; thapsigargin 15 μM; 24 hrs
Description: (§1) Protection against Thapsigargin (TG)-induced Cell-death. Human embryonic kidney (HEK293) cells were grown in Dulbecco's Modified Eagle's Medium (DMEM) with 10% FBS and 1% antibiotic antimycotic solution (ABAM). Mouse neuroblastoma (N2a) cells were grown in 1:1 DMEM:OPTI-MEM® with 5% FBS and 1% ABAM. All cells were grown in 10% CO2 in a humidified environment of the incubator. Cells grown in 96-well plates were exposed to a test compound (20 μM) for 2 hrs before addition of thapsigargin (15 μM for HEK293 cells and 1 μM for N2a cells) to induce ER stress. After incubation in cell-culture incubator for 24 hrs, ALAMARBLUE® regent (10% v/v) was added to the wells. Fluorescence reading was taken 2 hrs after the addition of the ALAMARBLUE® regent. Cell-viability was calculated as a percentage of relative fluorescence unit (RFU) compared to control.
(§2) The results are summarized in Table 2, where A represents a value greater than 50% cell rescue, B represents a value between 10% to 50% cell rescue, C represents a value between 1% to 10% cell rescue, and D represents a value no greater than 1% cell rescue.

CSM14.1 cells = assay: ER stress cell survival assay (thapsigargin); assay type: cell-based; conditions: compound 2 μM; about 15 μM thapsigargin; CSM14.1 cells;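 note: survival read as CellTiter-Glo luminescence after overnight incubation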
ob/ob mice = assay: Effect on the level of blood glucose in ob/ob mice; assay type: in vivo, mouse; conditions: for blood glucose: 10 or 50 mg/kg i.p. once a day for 5 days, as early as day 2; for glucose level after the last injection: for over a week after the last injection
Description: Fasting glucose was measured at baseline and 10 hours after the administration of the test compound. Glucose levels were measured in blood samples drawn from the tail vein using the OneTouch Ultra 2 Meter (LifeScan, Inc.).

N2a cells [4] = assay: Protection against hydrogen peroxide-induced cell death, N2a; assay type: cell-based, mouse; conditions: compound 40 μM; hydrogen peroxide 200 μM
Method in brief: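 N2a cells were pretreated 2 h with compound at 40 μM, then exposed to 200 μM H2O2 for 40 min. AlamarBlue (10% v/v) was added and fluorescence read 2 h later. Viability expressed as % RFU of control, reported as % cell rescue.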

N2a cells [5] = assay: Protection against thapsigargin (TG)-induced cell death, N2a; assay type: cell-based, mouse; conditions: compound 20 μM; thapsigargin 1 μM; 24 hrs
Description: as §1, §2

[6] = Sprague Dawley, in vivo, IV 2 mg/kg
[7] = Sprague Dawley, in vivo, PO 10 mg/kg
[8] = male, Beagle, plasma, IV 1 mg/kg
[9] = male, Beagle, plasma, PO 10 mg/kg

AUC(0-inf) [1, 6]: 847 ± 29 ng·h/mL
Cmax [1, 6]: 8370 ± 1100 nM
Tmax [1, 6]: 4.8 min
clearance [1, 6]: 39.3 mL/min/kg
half-life [1, 6]: 121 min
AUC(0-t) [1, 6]: 842 ± 31 ng·h/mL
MRT inf [1, 6]: 27 min
Vd ([1]; Sprague Dawley, in vivo, IV 2 mg/kg, read-out: Vz): 6.87 L/kg
AUC(0-inf) [1, 7]: 234 ± 154 ng·h/mL
Cmax [1, 7]: 800 ± 350 nM
Tmax [1, 7]: 25.2 min
half-life [1, 7]: 22.8 min
AUC(0-t) [1, 7]: 232 ± 154 ng·h/mL
MRT inf [1, 7]: 38.4 min
F ([1]; PO 10 mg/kg vs IV 2 mg/kg): 5.5%
F ([2]; PO 10 mg/kg vs IV 1 mg/kg): 1.4%
AUC(0-inf) [2, 8]: 96 ± 12 ng·h/mL
AUC(0-t) [2, 8]: 95 ± 12 ng·h/mL
Cmax [2, 8]: 2200 ± 500 nM
Tmax [2, 8]: 1.2 min
clearance [2, 8]: 177 mL/min/kg
half-life [2, 8]: 20.4 min
MRT inf [2, 8]: 12.6 min
Vd ([2]; male, Beagle, plasma, IV 1 mg/kg, read-out: Vz): 5.4 L/kg
Cmax [2, 9]: 80 ± 60 nM
Tmax [2, 9]: 21.6 min
half-life [2, 9]: 22.2 min
MRT inf [2, 9]: 37.2 min
F [3]: 3.1%
AUC [3]: 26 ng·h/mL
Cmax [3]: 120 nM
half-life [3]: 50.4 min
Compound: Cc1ccc2cccc(NC(=O)c3cccc(OC(C)C)c3)c2n1 [Compound A13, 3-Isopropoxy-N-(2-methylquinolin-8-yl)benzamide]
viability at 5 µM (human islet microtissues): 20 to 50%
Increase in Vmax at 10 μM (SERCA (SR vesicles)): B′ (B′ represents an increase between 20 to 50%)
increase in baseline ATPase activity (Ca^2+-ATPase): 10-15%

F [3]: 27%
AUC [3]: 344 ng·h/mL
Cmax [3]: 850 nM
half-life [3]: 138 min
Compound: CCNc1ccc(C(=O)Nc2cccc3ccc(C)nc23)cc1 [Compound C19, 4-(Ethylamino)-N-(2-methylquinolin-8-yl)benzamide]
viability at 5 µM (human islet microtissues): 20 to 50%
HEK293 Cells (TG-induced) cell rescue (HEK293 cells): A (A represents a value greater than 50% cell rescue)
Cell Survival (CSM14.1 cells): A (A represents a value greater than 50%)
increase in baseline ATPase activity (Ca^2+-ATPase): 10-15%
blood glucose (ob/ob mice): significantly lowered
glucose level after the last injection (ob/ob mice): identical to lean mice
N2a Cells (H2O2-induced) cell rescue (N2a cells [4]): A (A represents a value greater than 50% cell rescue)
N2a Cells (TG-induced) cell rescue (N2a cells [5]): B (B represents a value between 10% to 50% cell rescue)
pharmacokinetic properties as measured by CMAX, AUC and F (%) [3]: significantly improved pharmacokinetic properties

F [3]: 28%
AUC [3]: 330 ng·h/mL
Cmax [3]: 860 nM
half-life [3]: 39.6 min
Compound: Cc1ccc2cccc(NC(=O)c3ccc(NC(C)C)cc3)c2n1 [Compound C20, 4-(Isopropylamino)-N-(2-methylquinolin-8-yl)benzamide]
viability at 5 µM (human islet microtissues): 20 to 50%
HEK293 Cells (TG-induced) cell rescue (HEK293 cells): B (B represents a value between 10% to 50% cell rescue)
Cell Survival (CSM14.1 cells): A (A represents a value greater than 50%)
increase in baseline ATPase activity (Ca^2+-ATPase): greater than 15%
blood glucose (ob/ob mice): significantly lowered
glucose level after the last injection (ob/ob mice): identical to lean mice
N2a Cells (H2O2-induced) cell rescue (N2a cells [4]): B (B represents a value between 10% to 50% cell rescue)
N2a Cells (TG-induced) cell rescue (N2a cells [5]): B (B represents a value between 10% to 50% cell rescue)
pharmacokinetic properties as measured by CMAX, AUC and F (%) [3]: significantly improved pharmacokinetic properties
